Where a name gives a salt, the structure may show the parent alone.

Here are results for 28 compounds from patent US8283465B2, “Triazolopyridine compound, and action thereof as prolyl hydroxylase inhibitor or erythropoietin production-inducing agent” (Japan Tobacco Inc., priority 2009, dated 2012).

The target of assay [1] is T1, human PHD2 (Homo sapiens, UniProt Q9GZT9).
T1 construct: made in house; host or cells: Sf9 insect cells (baculovirus, pVL1393 vector)
Put plainly: Measurement of human PHD inhibitory activity (TR-FRET, hydroxylation of HIF-1α partial peptide). It counts as biochemical. The note with it: human PHD2 enzyme 1 nM, 25° C. 30 min, values consisting solely of numbers; read-out: IC50 (μM) in vitro, human PHD inhibitory activity. The procedure, abridged: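 FLAG-tagged human PHD2 from Sf9 cells (1 nM final) hydroxylates a biotinylated 19-residue HIF-1α peptide, 30 min at 25° C. After EDTA stop, hydroxyproline detected by TR-FRET using Eu/Xlent-labelled VBC complex; % inhibition relative to no-enzyme and no-compound wells.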
A general note: TR-FRET usually uses a lanthanide donor and a delayed reading to cut background.

Assay [2] deals with human EPO production, Hep3B cells. Kind of assay: Human EPO production activity in Hep3B cells (EPO-ELISA of culture supernatant). Particulars: for EC50: Homo sapiens, 24 hr incubation, values consisting solely of numbers, read-out: EC50 (μM) in vitro, human EPO production activity; for production activity (%) at 30 μM in vitro, human EPO: 24 hr, values containing %, relative to maximum production. The assay is classed as cell-based. Summed up: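 Hep3B cells were dosed with compound 24 h after plating and incubated 24 h at 37° C. Secreted EPO in supernatant was measured by ELISA. Values are EC50, or activity (%) at 30 μM scaled between untreated and maximum production.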
On the technique in general: In an ELISA, binding on a coated surface is turned into a signal by an enzyme label.

T1 sequence (Q9GZT9 whole entry): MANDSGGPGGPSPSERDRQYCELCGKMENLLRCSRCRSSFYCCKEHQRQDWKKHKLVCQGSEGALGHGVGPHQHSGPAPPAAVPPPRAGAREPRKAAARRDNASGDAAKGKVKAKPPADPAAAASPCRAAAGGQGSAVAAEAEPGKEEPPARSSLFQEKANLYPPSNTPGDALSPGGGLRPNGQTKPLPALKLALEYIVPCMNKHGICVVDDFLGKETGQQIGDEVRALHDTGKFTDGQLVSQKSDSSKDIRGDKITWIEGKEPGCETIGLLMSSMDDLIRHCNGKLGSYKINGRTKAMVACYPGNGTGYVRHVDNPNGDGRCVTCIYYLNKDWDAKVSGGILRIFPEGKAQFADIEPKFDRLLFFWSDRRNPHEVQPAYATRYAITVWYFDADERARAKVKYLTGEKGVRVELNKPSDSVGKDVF

As a reminder, the IC50 is the concentration at which inhibition is half-maximal. For orientation: EC50 means the concentration giving half of the maximal effect. `O=C(O)CNC(=O)c1c(O)cc(-c2cccc(C(F)(F)F)c2)n2ncnc12` [Example 33, {[7-hydroxy-5-(3-trifluoromethyl-phhenyl)[1,2,4]triazolo[1,5-a]pyridine-8-carbonyl]ammino}acetic acid hydrochloride]: the IC50 in assay [1] was 0.46 µM. Besides, in assay [2], the EC50 turned out to be 10.1 µM.
As to `O=C(O)CNC(=O)c1c(O)cc(-c2ccc(F)c(F)c2)n2ncnc12` [Example 25, {[5-(3,4-difluorophenyl)-7-hydroxy[1,2,4]triazolo[1,5-a]pyridine-8-carbonyl]amino}acetic acid hydrochloride], in assay [1], the IC50 was 0.25 µM. Moreover, in assay [2], the EC50 turned out to be 14.1 µM.
Consider `CCCCc1c(Cl)c(O)c(C(=O)NCC(=O)O)c2ncnn12` [Example 6, [(5-butyl-6-chloro-7-hydroxy[1,2,4]triazolo[1,5-a]pyridine-8-carbonyl)amino]acetic acid hydrochloride], for which the IC50 in assay [1] worked out at 0.87 µM. Besides, the EC50 in assay [2] came out at 20.8 µM.
Consider `Cl.O=C(O)CNC(=O)c1c(O)ccn2c(CCC3CCCCC3)nnc12` [Example 115, {[3-(2-cyclohexylethyl)-7-hydroxy[1,2,4]triazolo[4,3-a]pyridine-8-carbonyl]amino} acetic acid hydrochloride], for which the IC50 in assay [1] is 1.8 µM. Moreover, the “production activity (%) at 30 μM in vitro, human EPO” value (“production activity (%) at 30 μM” below) in assay [2] worked out at 0%.
In the case of `O=C(O)CNC(=O)c1c(O)cc(CCC2CC2)n2ncnc12` [Example 47, {[5-(2-cyclopropylethyl)-7-hydroxy[1,2,4]triazolo[1,5-a]pyridine-8-carbonyl]amino}acetic acid hydrochloride], the IC50 in assay [1] came out at 0.56 µM. The EC50 in assay [2] was found to be 12 µM.
Regarding `O=C(O)CNC(=O)c1c(O)cc(-c2ccc(Cl)c(Cl)c2)c2ncnn12` [Example 95, {[8-(3,4-dichlorophenyl)-6-hydroxy[1,2,4]triazolo[1,5-a]pyridine-5-carbonyl]amino} acetic acid hydrochloride], the IC50 in assay [1] came to 0.12 µM. The EC50 in assay [2] is 4.3 µM.
Regarding `CC(C)(NC(=O)c1c(O)cc(-c2cc(F)cc(F)c2)n2ncnc12)C(=O)O` [Example 68, 2-{[5-(3,5-difluorophenyl)-7-hydroxy[1,2,4]triazolo[1,5-a]pyridine-8-carbonyl]amino}-2-methylpropionic acid hydrochloride], in assay [1], the IC50 was found to be 5.94 µM. Further, the “production activity (%) at 30 μM” value in assay [2] turned out to be 0%.
On to `O=C(O)CNC(=O)c1c(O)cc(-c2cccc(Cl)c2F)n2ncnc12` [Example 56, {[5-(3-chloro-2-fluorophenyl)-7-hydroxy[1,2,4]triazolo[1,5-a]pyridine-8-carbonyl]amino} acetic acid hydrochloride], for which, in assay [1], the IC50 is 0.19 µM. The EC50 in assay [2] is 8.4 µM.
As for `CC(C)(C)CCc1cc(O)c(C(=O)NCC(=O)O)c2ncnn12` [Example 24, {[5-(3,3-dimethylbutyl)-7-hydroxy[1,2,4]triazolo[1,5-a]pyridine-8-carbonyl]amino}acetic acid hydrochloride], in assay [1], the IC50 was determined as 0.57 µM. The EC50 in assay [2] stood at 5.4 µM.
Turning to `O=C(O)CNC(=O)c1c(O)cc(-c2cccc(C(F)(F)F)c2F)n2ncnc12` [Example 55, {[5-(2-fluoro-3-trifluoromethyl-phenyl)-7-hydroxy[1,2,4]triazolo[1,5-a]pyridine-8-carbonyl]amino} acetic acid hydrochloride], the IC50 in assay [1] was determined as 0.23 µM. Moreover, the EC50 in assay [2] worked out at 8.9 µM.
As for `CCCc1c(Cl)c(O)c(C(=O)NCC(=O)O)c2ncnn12.Cl` [Example 81, [(6-chloro-7-hydroxy-5-propyl[1,2,4]triazolo[1,5-a]pyridine-8-carbonyl)amino] acetic acid hydrochloride], in assay [1], the IC50 was determined as 6.09 µM. Also, the “production activity (%) at 30 μM” value in assay [2] was found to be 33%.
As to `O=C(O)CNC(=O)c1c(O)cc(-c2cccc(C(F)(F)F)c2)c2ncnn12` [Example 110, {[6-hydroxy-8-(3-trifluoromethyl phenyl)[1,2,4]triazolo[1,5-a]pyridine-5-carbonyl]amino} acetic acid hydrochloride], the IC50 in assay [1] is 0.15 µM. In assay [2], the EC50 amounted to 6.5 µM.
Turning to `O=C(O)CNC(=O)c1c(O)cc(CCc2ccccc2)n2nc(C3CC3)nc12` [Example 15, [(2-cyclopropyl-7-hydroxy-5-phenethyl[1,2,4]triazolo[1,5-a]pyridine-8-carbonyl)amino]acetic acid hydrochloride], the IC50 in assay [1] was 1.8 µM. Besides, the EC50 in assay [2] was found to be 29.1 µM.
For `O=C(O)CNC(=O)c1c(O)cc(-c2cc(F)cc(Cl)c2)n2ncnc12` [Example 41, {[5-(3-chloro-5-fluorophenyl)-7-hydroxy[1,2,4]triazolo[1,5-a]pyridine-8-carbonyl]amino}acetic acid hydrochloride], in that order: 0.26 µM and 9.1 µM.
For `O=C(O)CNC(=O)c1c(O)cc(C2CCCCCC2)n2ncnc12` [Example 58, [(5-cycloheptyl-7-hydroxy[1,2,4]triazolo[1,5-a]pyridine-8-carbonyl)amino] acetic acid hydrochloride], the IC50 in assay [1] amounted to 0.55 µM. The EC50 in assay [2] is 4.7 µM.
For `O=C(O)CNC(=O)c1c(O)cc(-c2cc(F)cc(F)c2F)n2ncnc12` [Example 76, {[7-hydroxy-5-(2,3,5-trifluorophenyl) [1,2,4]triazolo[1,5-a]pyridine-8-carbonyl]amino} acetic acid hydrochloride], the 50% inhibitory concentration (IC50) in assay [1] amounted to 0.22 µM. Further, in assay [2], the EC50 amounted to 18 µM.
In the case of `O=C(O)CNC(=O)c1c(O)cc(-c2ccc(F)cc2F)n2ncnc12` [Example 77, {[5-(2,4-difluorophenyl)-7-hydroxy[1,2,4]triazolo[1,5-a]pyridine-8-carbonyl]amino} acetic acid hydrochloride], in assay [1], the IC50 worked out at 0.24 µM. Besides, the EC50 in assay [2] was found to be 18.7 µM.
Turning to `O=C(O)CNC(=O)c1c(O)ccn2nc(-c3ccccc3)nc12` [Example 13, [(7-hydroxy-2-phenyl[1,2,4]triazolo[1,5-a]pyridine-8-carbonyl)amino]acetic acid hydrochloride], the IC50 in assay [1] was 1.31 µM. Besides, the “production activity (%) at 30 μM” value in assay [2] worked out at 1%.
Consider `N#Cc1cccc(-c2cc(O)c(C(=O)NCC(=O)O)c3ncnn23)c1` [Example 37, {[5-(3-cyanophenyl)-7-hydroxy[1,2,4]triazolo[1,5-a]pyridine-8-carbonyl]amino}acetic acid hydrochloride], for which, in assay [1], the IC50 amounted to 0.2 µM. Also, the “production activity (%) at 30 μM” value in assay [2] amounted to 11%.
On to `O=C(O)CNC(=O)c1c(O)cc(-c2ccc(Cl)s2)c2ncnn12` [Example 96, {[8-(5-chlorothiophen-2-yl)-6-hydroxy[1,2,4]triazolo[1,5-a]pyridine-5-carbonyl]amino} acetic acid hydrochloride], for which the IC50 in assay [1] was 0.29 µM. In addition, in assay [2], the EC50 stood at 5.9 µM.
Regarding `O=C(O)CNC(=O)c1c(O)cc(-c2ccc(Cl)cc2)n2ncnc12` [Example 50, {[5-(4-chlorophenyl)-7-hydroxy[1,2,4]triazolo[1,5-a]pyridine-8-carbonyl]amino}acetic acid hydrochloride], the IC50 in assay [1] worked out at 0.18 µM. Further, the EC50 in assay [2] turned out to be 5.6 µM.
For `O=C(O)CNC(=O)c1c(O)cc(-c2ccc(Cl)cc2)c2ncnn12` [Example 108, {[8-(4-chlorophenyl)-6-hydroxy[1,2,4]triazolo[1,5-a]pyridine-5-carbonyl]amino} acetic acid], in that order: 0.16 µM and 8.9 µM.
As for `Cl.O=C(O)CNC(=O)c1c(O)ccn2c(CCc3ccccc3)nnc12` [Example 114, [(7-hydroxy-3-phenethyl[1,2,4]triazolo[4,3-a]pyridine-8-carbonyl)amino] acetic acid hydrochloride], the IC50 in assay [1] worked out at 1.2 µM. In addition, the “production activity (%) at 30 μM” value in assay [2] is 0%.
`O=C(O)CNC(=O)c1c(O)cc(-c2cc(Cl)cc(C(F)(F)F)c2)n2ncnc12` [Example 36, {[5-(3-chloro-5-trifluoromethyl-phenyl)-7-hydroxy[1,2,4]triazolo[1,5-a]pyridine-8-carbonyl]amino}acetic acid hydrochloride]: the IC50 in assay [1] worked out at 0.72 µM. Besides, the EC50 in assay [2] turned out to be 10.5 µM.
With `CC(C)CCc1cc(O)c(C(=O)NCC(=O)O)c2ncnn12` [Example 18, {[7-hydroxy-5-(3-methylbutyl)[1,2,4]triazolo[1,5-a]pyridine-8-carbonyl]amino}acetic acid hydrochloride], the IC50 in assay [1] amounted to 0.48 µM. Moreover, the EC50 in assay [2] worked out at 6.1 µM.
For `O=C(O)CNC(=O)c1c(O)cc(CCC2CCCC2)c2ncnn12` [Example 99, {[8-(2-cyclopentylethyl)-6-hydroxy[1,2,4]triazolo[1,5-a]pyridine-5-carbonyl]amino} acetic acid hydrochloride], in that order: 0.87 µM and 20.2 µM.
With `O=C(O)CNC(=O)c1c(O)cc(-c2cc(F)cc(C(F)(F)F)c2)n2ncnc12` [Example 31, {[5-(3-fluoro-5-trifluoromethyl-phenyl)-7-hydroxy[1,2,4]triazolo[1,5-a]pyridine-8-carbonyl]amino}acetic acid hydrochloride], in assay [1], the IC50 worked out at 0.8 µM. Moreover, the EC50 in assay [2] came out at 12.1 µM.
`O=C(O)CNC(=O)c1c(O)cc(-c2cc(F)cc(C3CC3)c2)n2ncnc12` [Example 52, {[5-(3-cyclopropyl-5-fluorophenyl)-7-hydroxy[1,2,4]triazolo[1,5-a]pyridine-8-carbonyl]amino} acetic acid hydrochloride]: the IC50 in assay [1] was found to be 0.89 µM. Further, the EC50 in assay [2] was 10.4 µM.
